Results from the supplement of paper PMC10307832.

Assays:
Test in all cases: relative viability (nuclei count vs DMSO), 5 days (fraction); higher = more cells survive
[1] = compound: Cn1c(Nc2ccc(C(F)(F)F)cc2)nc2cc(Oc3ccnc(-c4ncc(C(F)(F)F)[nH]4)c3)ccc21 [RAF265]
Method in brief: (§1)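 Viability was read as treated-well nuclei divided by vehicle-well nuclei, using the median across plates. Lung cancer cell lines in 1536-well plates were kept overnight at 37 °C, pinned with five √10-spaced library-drug doses, and after 5 days were Hoechst-stained, imaged at 4× and counted in MetaXpress. Plates passed only with control CV below 25% and at least one doubling.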

[2] = compound: C1=CC=C2C(=C1)C=CC(=C2SSC3=C(C=CC4=CC=CC=C43)O)O [IPA-3]
Method in brief: as §1

[3] = compound: Cc1ccc(-n2nc(C(C)(C)C)cc2NC(=O)Nc2ccc(OCCN3CCOCC3)c3ccccc23)cc1 [Doramapimod]
Method in brief: as §1

[4] = compound: C1=CC=C2C(=C1)C=CC(=C2SSC3=C(C=CC4=CC=CC=C43)O)O [IPA-3] + CC(=O)Nc1cccc(-n2c(=O)n(C3CC3)c(=O)c3c(Nc4ccc(I)cc4F)n(C)c(=O)c(C)c32)c1 [Trametinib] (partner 0.02 µM)
Method in brief: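 One day after seeding in 1536-well plates, lung cancer cell lines were dosed by pin tool. Dosing was either single-drug or a fixed anchor-drug dose plus five library-drug doses (not always all listed) in √10 steps. After 5 days, nuclei were stained in one fix-and-stain step and counted on 4× images, and relative viability is the nuclei count of treated wells over that of vehicle wells, given as the median of duplicate plates.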

| Cell Line | relative viability ([1]; 0.01 µM) | relative viability ([1]; 0.03162 µM) | relative viability ([1]; 0.1 µM) | relative viability ([1]; 0.3162 µM) | relative viability ([1]; 1 µM) | relative viability ([2]; 0.2 µM) | relative viability ([2]; 0.6325 µM) | relative viability ([2]; 2 µM) | relative viability ([2]; 6.325 µM) | relative viability ([2]; 20 µM) | relative viability ([3]; 0.02 µM) | relative viability ([3]; 0.06325 µM) | relative viability ([3]; 0.2 µM) | relative viability ([3]; 0.6325 µM) | relative viability ([3]; 2 µM) | relative viability ([4]; first compound 0.2 µM) | relative viability ([4]; first compound 0.6325 µM) | relative viability ([4]; first compound 2 µM) | relative viability ([4]; first compound 6.325 µM) | relative viability ([4]; first compound 20 µM) |
| --- | --- | --- | --- | --- | --- | --- | --- | --- | --- | --- | --- | --- | --- | --- | --- | --- | --- | --- | --- | --- |
| SW 1573 | 1.18 | 0.89 | 0.955 | 0.98 | 0.573 | 1.13 | 0.919 | 1.01 | 0.94 | 0.696 | 0.946 | 0.9 | 0.844 | 0.952 | 0.838 | 0.67 | 0.546 | 0.46 | 0.532 | 0.271 |
| NCI-H2405 | 1.04 | 0.976 | 1 | 0.871 | 0.597 | 1.06 | 0.994 | 1.03 | 1.02 | 1.06 | 1.02 | 1.03 | 0.973 | 1.07 | 0.914 | 0.683 | 0.639 | 0.511 | 0.628 | 0.81 |
| NCI-H2087 | 1.04 | 0.796 | 0.796 | 0.617 | 0.639 | 1.33 | 0.87 | 0.89 | 0.935 | 1.13 | 1.05 | 0.975 | 1.14 | 1.01 | 1 | 0.235 | 0.267 | 0.178 | 0.227 | 0.271 |
| NCI-H460 | 1.02 | 0.968 | 1.09 | 0.971 | 0.965 | 1.2 | 0.967 | 0.921 | 0.945 | 0.993 | 0.994 | 0.999 | 1.04 | 1.05 | 0.972 | 0.133 | 0.145 | 0.141 | 0.129 | 0.104 |
| LOU-NH91 | 1.05 | 0.976 | 0.905 | 0.733 | 0.753 | 0.953 | 0.94 | 1.01 | 1.01 | 1.19 | 1.09 | 0.996 | 1.05 | 1.08 | 0.691 | 0.79 | 0.757 | 0.805 | 0.779 | 0.852 |
| NCI-H1651 | 1 | 1 | 0.961 | 0.901 | 0.785 | 1.18 | 0.952 | 1.03 | 1.02 | 1.08 | 0.938 | 0.934 | 1.03 | 1.1 | 0.968 | 0.945 | 0.798 | 0.883 | 0.904 | 0.971 |
| NCI-H441 | 1.01 | 0.928 | 1.08 | 0.78 | 0.753 | 1.37 | 0.951 | 0.896 | 1.04 | 0.915 | 0.999 | 0.845 | 1.08 | 1.06 | 0.859 | 0.535 | 0.437 | 0.348 | 0.473 | 0.449 |
